Tests used:
[1] = tested on: Pseudomonas aeruginosa (ATCC 27853); test: Determination of the minimum inhibitory concentration (P. aeruginosa); assay type: cell-based
Protocol: (§1) Three bacterial strains—two Gram-positive bacteria: Staphylococcus aureus (ATCC 29213) (MSSA) and methicillin resistant-S. aureus (MRSA) (ATCC 43300); and a Gram-negative Pseudomonas aeruginosa (ATCC 27853) were used in this study. Bacterial stocks (stored at −80° C. in nutrient broth with 15% glycerol) were streaked onto nutrient agar (Oxoid, Basingstoke, UK) plates for use as the working stock. From the stock an overnight bacterial culture grown in nutrient broth was diluted 1:100 into specific growth media, including tryptic soya broth for S. aureus and Luria-Bertani broth for P. aeruginosa. The final concentration of bacteria was made up to 1×10^5 cfu/mL for the inhibition assays. BCP3 was suspended in respective bacterial media to afford 5 mg/mL suspension. The stock suspension was then twice and ten times diluted to finally obtain concentrations ranging from 8×10^−4-5 mg/mL. Aliquots of 20 μL of each concentration were then added in quadruplicate to wells containing 80 μL of 1×10^5 cfu/mL bacterial solutions in a 96 well plate format for final well concentrations of 1.6×10^−4-1 mg/mL of BCP3. […] After 24 h, 100 μL from each well was transferred into a TOPS 96 well plate (Nunc) and the optical density was measured at 600 nm using a BioTek plate reader. The inhibition of bacterial growth was determined relative to the control (%). […]

[2] = tested on: methicillin resistant-S. aureus (MRSA) (ATCC 43300); test: Determination of the minimum inhibitory concentration (MRSA); assay type: cell-based; details: Staphylococcus aureus, 24 h at 37° C., lowest concentration at which greater than 90% inhibition of bacterial growth was observed
Protocol: as §1

L929 cells = test: Determination of minimal BCP3 cytotoxic concentration (MTS assay); assay type: cell-based
Protocol: BCP3 was sterilized via incubation in 80% ethanol in a sterile glass vial for 1 h prior to being vacuum dried at 120° C. for 5 h (0.2 mbar). Subsequently BCP3 was suspended in complete minimum essential medium (MEM, containing 10% (v/v) FBS and 1% (v/v) non-essential amino acids) to afford a 5 mg/mL suspension. The stock suspension was then twice and ten times diluted to finally obtain concentrations ranging from 8×10^−4-5 mg/mL. Aliquots of 20 μL of each concentration were then added in quadruplicate to wells previously seeded with L929 cells containing 80 μL of complete MEM (18,000 cells per well, 16 h) in a 96 well plate format for final well concentrations of 1.6×10^−4-1 mg/mL. Additional controls were added to wells containing pre-seeded cells; medium alone, 5%, and 10% (v/v) dimethylsulfoxide (DMSO, Sigma) in medium. The plate was subsequently incubated for 21 h (37° C., 5% CO2). An 3-(4,5-dimethylthiazol-2-yl)-5(3-carboxymethoxyphenyl)-2-(4-sulfophenyl)-2H-tetrazolium (MTS) assay was then utilized to determine cell viability based on metabolic activity of cells. Stock solutions of 4 mM MTS (Promega) in PBS and 3 mM of phenazine methosulfate (PMS, Sigma) in PBS were used to make up a mixture of MTS and PMS reagent. A working assay reagent solution was made up by addition of 2 mL of MTS and 100 μL of PMS stock solutions per 10 mL of complete medium. Media was removed from the sample and control wells and washed with 120 μL of fresh medium; subsequently 100 μL of the assay reagent solution was added to wells then incubated for 3 h at 37° C., 5% CO2. For colorimetric analysis, plates were read in a BioTek plate reader at wavelengths 490 nm and 655 nm. The difference in readings at the two wavelengths was used to calculate cell attachment compared to controls.

[3] = tested on: Staphylococcus aureus (ATCC 29213) (MSSA); test: Determination of the minimum inhibitory concentration (MSSA); assay type: cell-based; details: 24 h at 37° C., lowest concentration at which greater than 90% inhibition of bacterial growth was observed
Protocol: as §1

[4] = Solubility of BCP3 in water and base; assay type: physicochemical

For `O=C(O)c1ccc(/C=C/c2cc(/C=C/c3ccc(C(=O)O)cc3)c(/C=C/c3ccc(C(=O)O)cc3)cc2/C=C/c2ccc(C(=O)O)cc2)cc1` [Formula E], the MIC ([1]; Pseudomonas aeruginosa, ATCC27853, P. aeruginosa, 24 h at 37° C., lowest concentration at which greater than 90% inhibition of bacterial growth was observed) was > 1000 µg/mL, the “maximum inhibition of P. aeruginosa growth” value ([1]; at 1 mg/mL BCP3, 24 h) was 32% and the MIC [2] was 15.6 µg/mL. For the same compound, the “cytotoxicity” value (L929 cells; L929 cells, up to 1 mg/mL) was “non-cytotoxic”, the L929 cell viability (L929 cells; at 1 mg/mL BCP3, 21 h, compared to TOPS control) was 85% and the L929 cell viability (L929 cells; at all concentrations, 1.6×10^−4-1 mg/mL, 21 h) was “above 70%”. The MIC [3] was 15.6 µg/mL, the “solubility in the presence of bases” value ([4]; in the presence of bases such as NaOH) was “highly soluble” and the “solubility in water” value ([4]; water) was “minimally soluble”.
